Reference: the supplement of paper PMC6965134
± gives the standard deviation of the averaged measurements.

Experiment: TIMS collisional cross section (CCS, N2) of the lipid ion; higher = larger ion cross section
Settings: ionization mode: positive, one isomer drawn

Row | Structure (SMILES) | TIMS collisional cross section (sample type: plasma) [Å²] | TIMS collisional cross section (sample type: HeLa) [Å²] | TIMS collisional cross section (sample type: Liver) [Å²]
1 | CC/C=C\C/C=C\C/C=C\C/C=C\C/C=C\CCCC(=O)O[C@H](COC(=O)CCCCCCCCCCCCCCC)COP(=O)([O-])OCC[N+](C)(C)C [PC 16:0@_20:5] (ion (formula + adduct): [C44H78NO8P+H] 1+) | 290.6 | – | –
2 | CCCCC/C=C\C/C=C\C/C=C\C/C=C\CCCCCC(=O)O[C@H](COC(=O)CCCCCCCCCCCCCCC)COP(=O)([O-])OCC[N+](C)(C)C [PC 16:0@_22:4] (ion (formula + adduct): [C46H84NO8P+H] 1+) | – | 294.9 | –
3 | CCCCC/C=C\C/C=C\C/C=C\C/C=C\C/C=C\CCC(=O)O[C@H](COC(=O)CCCCCCCCCCCCCCC)COP(=O)([O-])OCC[N+](C)(C)C [PC 16:0@_22:5] (ion (formula + adduct): [C46H82NO8P+H] 1+) | – | – | 293.8
4 | CCCCCCCCCCCCCCCC(=O)OC[C@H](COP(=O)([O-])OCC[N+](C)(C)C)OC(=O)CCCCCCCCCCCCCCC [PC 16:0_16:0] (ion (formula + adduct): [C40H80NO8P+H] 1+) | 285.7 ± 0.42 | 286.1 | 285.5
5 | CCCCCC/C=C\CCCCCCCC(=O)O[C@H](COC(=O)CCCCCCCCCCCCCCC)COP(=O)([O-])OCC[N+](C)(C)C [PC 16:0_16:1@] (ion (formula + adduct): [C40H78NO8P+H] 1+) | – | 282 | –
6 | CCCCCC/C=C\CCCCCCCC(=O)O[C@H](COC(=O)CCCCCCCCCCCCCCC)COP(=O)([O-])OCC[N+](C)(C)C [PC 16:0_16:1] (ion (formula + adduct): [C40H78NO8P+H] 1+) | 282.3 | 282.63 ± 1.3 | 282.3
7 | CCCCCCC/C=C\CCCCCCCC(=O)O[C@H](COC(=O)CCCCCCCCCCCCCCC)COP(=O)([O-])OCC[N+](C)(C)C [PC 16:0_17:1] (ion (formula + adduct): [C41H80NO8P+H] 1+) | – | 285.8 | –

The remaining lines, values ahead:

Row | TIMS collisional cross section (sample type: plasma) [Å²] | TIMS collisional cross section (sample type: HeLa) [Å²] | TIMS collisional cross section (sample type: Liver) [Å²] | Structure (SMILES)
8 | – | – | 291.4 | CCCCCCCCCCCCCCCCCC(=O)O[C@H](COC(=O)CCCCCCCCCCCCCCC)COP(=O)([O-])OCC[N+](C)(C)C [PC 16:0_18:0] (ion (formula + adduct): [C42H84NO8P+H] 1+)
9 | 287.7 | 288.37 ± 0.9 | – | CCCCCCCC/C=C\CCCCCCCC(=O)O[C@H](COC(=O)CCCCCCCCCCCCCCC)COP(=O)([O-])OCC[N+](C)(C)C [PC 16:0_18:1] (ion (formula + adduct): [C42H82NO8P+H] 1+)
10 | – | 288.7 | – | CCCCCCCC/C=C\CCCCCCCC(=O)O[C@H](COC(=O)CCCCCCCCCCCCCCC)COP(=O)([O-])OCC[N+](C)(C)C [PC 16:0_18:1] (ion (formula + adduct): [C42H82NO8P+Na] 1+)
11 | 282.45 ± 2.8 | – | 286.3 | CCCCC/C=C\C=C\CCCCCCCCC(=O)O[C@H](COC(=O)CCCCCCCCCCCCCCC)COP(=O)([O-])OCC[N+](C)(C)C [PC 16:0_18:2] (ion (formula + adduct): [C42H80NO8P+H] 1+)
12 | 282 | – | 282 | CCCCC/C=C\C/C=C\C/C=C\CCCCC(=O)O[C@H](COC(=O)CCCCCCCCCCCCCCC)COP(=O)([O-])OCC[N+](C)(C)C [PC 16:0_18:3] (ion (formula + adduct): [C42H78NO8P+H] 1+)
13 | – | – | 295.2 | CCCCCCCC/C=C\CCCCCCCCCC(=O)O[C@H](COC(=O)CCCCCCCCCCCCCCC)COP(=O)([O-])OCC[N+](C)(C)C [PC 16:0_20:1@] (ion (formula + adduct): [C44H86NO8P+H] 1+)
14 | 290.5 | – | – | CCCCCCCC/C=C\C/C=C\C/C=C\CCCC(=O)O[C@H](COC(=O)CCCCCCCCCCCCCCC)COP(=O)([O-])OCC[N+](C)(C)C [PC 16:0_20:3] (ion (formula + adduct): [C44H82NO8P+H] 1+)
